Experiments:
[1] = tested on: glucocorticoid receptor transactivating and DNA binding domains fused to the ecdysone receptor hinge and ligand binding domains; conditions: mammalian cells; cited from earlier work
[2] = tested on: glucocorticoid receptor; assay: Maize protoplast GUS reporter assay with pMF6HR1PAT (GR) and p221.9GRE6; type: cell-based, Human; conditions: maize protoplasts, reporter plus effector, concentration not given
From the text: The glucocorticoid receptor DNA for the Maize transient expression construct was produced via the polymerase chain reaction (PCR) of Human Fibrosarcoma cDNA (HT1080 cell line, ATCC#CC1121) library (Clontech see Hollenberg et al., 1985). The PCR approach taken was to amplify the 2.7 kb fragment encoding the glucocorticoid receptor in two segments. The first segment entails the N-terminal end up to and including the DNA binding domain while the second fragment begins with the hinge region (amino acid 500) thought to the end of the reading frame. Thus, the PCR primer for the N-terminal end segment was designed to contain an EcoRI site and the Kozak consensus sequence for translation initiation: GREcoRI 5′ […] 3′ (SEQ ID NO: 32).
The 2.7 kb EcoRI fragment was subcloned into the vector pMF6PAT EcoRI resulting in pMF6HGIPAT (FIG. 10).
Two reporter plasmids were made by inserting the into p221.9 or p221.10 BamHI/HindIII vectors two pairs or oligonucleotides containing six copies of the glucocorticoid response element (GRE). […]
Protoplasts were isolated from a maize suspension culture derived from BE70×A188 embryogenic callus material, which was maintained by subculturing twice weekly in MS0.5mod. […] The pellet was resuspended in wash buffer and the protoplasts were counted. […] Protein concentrations of tissue homogenates were determined by the Bio-Rad protein assay (Bradford, 1976). […]

CC(C)CC[C@@H](O)[C@](C)(O)[C@H]1CC[C@@]2(O)C3=CC(=O)[C@]4(O)C[C@@H](O)[C@@H](O)C[C@]4(C)[C@H]3[C@H](O)C[C@]12C [Muristerone A]
activity of chimeric receptor as homodimer [1]: active
induced levels of expression [2]: does not lead to induced levels of expression
